The values that follow come from ChEMBL document CHEMBL4813917, “2-((1-Phenyl-1H-1,2,3-triazol-4-yl)methyl)-2-azabicyclo[3.2.1]octan-3-one derivatives: Simplification and modification of aconitine scaffold for the discovery of novel anticancer agents” (Eur J Med Chem, 2021).

The source made the active and inactive calls. The rule behind the calls is not given here.

For data set [1], the system named is LoVo. As to the kind of experiment: Induction of apoptosis in human LoVo cells assessed as increase in cleaved caspase-3 levels at 20 to 80 nM measured after 24 hrs by Western blot assay. It is filed as functional, cell-based. As to conditions: dose 20-80 nM. On the technique in general: Immunoblotting shows a protein as a band on a membrane.
Data set [2] can be described thus: Cytotoxicity against human MRC5 cells assessed as reduction in cell viability measured after 24 hrs by MTT assay. It counts as cell-based. A general note: Tetrazolium dyes change colour on reduction, which living cells bring about.
The test system of data set [3] is SW-620. As to the kind of experiment: Induction of apoptosis in human SW-620 cells assessed as decrease in Bcl-2 levels at 20 to 80 nM measured after 24 hrs by Western blot assay. It counts as functional, cell-based. As to conditions: dose 20-80 nM.
Data set [4] in a line: Cytotoxicity against human IOSE80 cells assessed as reduction in cell viability measured after 24 hrs by MTT assay. It counts as cell-based.
Data set [5] in a line: Cytotoxicity against human GES1 cells assessed as reduction in cell viability measured after 24 hrs by MTT assay. It counts as cell-based.
The test system of data set [6] is SW-620. Briefly: Induction of apoptosis in human SW-620 cells assessed as increase in cleaved caspase-3 levels at 20 to 80 nM measured after 24 hrs by Western blot assay. It counts as functional, cell-based. As to conditions: dose 20-80 nM.
For data set [7], the system named is LoVo. As to the kind of experiment: Inhibition of cell migration in human LoVo cells at 20 to 80 nM measured after 24 hrs by wound healing assay. It counts as functional, cell-based. To be noted: dose 20-80 nM.
Data set [8] deals with A549. As to the kind of experiment: Antiproliferative activity against human A549 cells assessed as inhibition of cell proliferation measured after 24 hrs by MTT assay. As to conditions: A549, 24 h. It counts as functional, cell-based.
Data set [9] relates to SW-620. Briefly: Induction of apoptosis in human SW-620 cells assessed as late apoptotic cells at 20 nM measured after 24 hrs by Annexin V/PI staining based flow cytometry method (reference value: 1.3%). It counts as functional. (In flow cytometry, cells or beads pass a laser one at a time.)
Data set [10] relates to LoVo. As to the kind of experiment: Cell cycle arrest in human LoVo cells assessed as accumulation of cells in G0/G1 phase at 20 to 80 nM measured after 24 hrs by PI staining based flow cytometry method. It is filed as functional. To be noted: dose 20-80 nM.
Data set [11] deals with LoVo. Briefly: Induction of apoptosis in human LoVo cells assessed as viable cells at 80 nM measured after 24 hrs by Annexin V/PI staining based flow cytometry method (reference value: 93.5%). It counts as functional. To be noted: read-out: Activity.
Data set [12] concerns LoVo. As to the kind of experiment: Induction of apoptosis in human LoVo cells assessed as decrease in Bcl-2 levels at 20 to 80 nM measured after 24 hrs by Western blot assay. As to conditions: dose 20-80 nM. It counts as functional, cell-based.
Data set [13] deals with SW-620. Briefly: Cell cycle arrest in human SW-620 cells assessed as decrease of cells in G2/M phase at 20 to 80 nM measured after 24 hrs by PI staining based flow cytometry method. It is filed as functional. To be noted: dose 20-80 nM.
Data set [14] has as its system LoVo. Briefly: Induction of apoptosis in human LoVo cells assessed as necrotic cells at 80 nM measured after 24 hrs by Annexin V/PI staining based flow cytometry method (reference value: 1.3%). It is filed as functional.
Data set [15] deals with LoVo. Briefly: Induction of apoptosis in human LoVo cells assessed as increase in Bax levels at 20 to 80 nM measured after 24 hrs by Western blot assay. To be noted: dose 20-80 nM. It counts as functional, cell-based.
For data set [16], the system named is SW-620. Briefly: Induction of apoptosis in human SW-620 cells assessed as early apoptotic cells at 20 nM measured after 24 hrs by Annexin V/PI staining based flow cytometry method (reference value: 1.7%). It counts as functional.
Data set [17] is described as follows: Cytotoxicity against human L02 cells assessed as reduction in cell viability measured after 24 hrs by MTT assay. It is filed as cell-based.

One may read the CC50 as the concentration giving 50% cytotoxicity. In general, IC50 refers to the concentration that gives 50% inhibition. `CC1(C)[C@H]2CC[C@]1(C)N(Cc1cn(-c3cccc(Br)c3)nn1)C(=O)C2`: the outcome in data set [1], in [3], in data set [6], in data set [10], in data set [12] and in [13] was Active. Moreover, in [15], the result was Active. The CC50 at 24 h in [2] worked out at 38.8 µM; in data set [4] it was 9.55 µM; in data set [5], 9.93 µM; in data set [17] it was 10.5 µM. Moreover, the inhibition entry in data set [7] is “Dose-Dependent Effect”. The IC50 in data set [8] was found to be 0.09 µM. Further, the Activity in [9] is on record as 8.5%; in data set [14], 6%; in data set [16] it was 5.1%. Besides, in [11], the viability at 0.08 µM was 61.7%.
